Tests used:
in vitro [1] = format: in vitro ADME; conditions: human, s9, pH 7.4
Description: Duplicate aliquots of test compound or positive control substrate (GS-7340) were added to PMSF-free Intestinal S9 fractions diluted with 100 mM phosphate buffered saline, pH 7.4, to obtain a protein concentration of 1.0 mg/mL. The S9 metabolic reactions were initiated by the addition of the substrates to the S9 reaction mixture to a final concentration of 2 μM. At 0, 10, 20, 30, 60 and 120 min, 25 μL aliquots of the reaction mixture were transferred to plates containing 225 μl of IS/Q solution. After quenching, the plates were centrifuged at 3000×g for 30 minutes, and 150 μL aliquots of each supernatant were diluted with 150 μL water. Aliquots (10 μL) of the diluted supernatant were analyzed on a Thermo Q-Exactive mass spectrometer as described below. Quantification of test compounds and controls was performed by analyte/internal standard peak area ratio (PAR) values measured on a Thermo Q-Exactive mass spectrometer coupled to a Dionex UltiMate 3000 HPLC with a Leap Technologies HTC PAL autosampler. The column used was a Thermo Hypersil GOLD (1.9 μm particle size, 2.1×50 mm). Mobile phase A consisted of […] formic acid in water. Mobile phase B consisted of 0.1% (v/v) formic acid in acetonitrile. Elution of analytes was achieved by a series of linear gradients of acetonitrile in water containing 0.1% (v/v) formic acid. The mass spectrometer was calibrated on a weekly basis and mass tolerance of 5 ppm was used.

[2] = format: in vitro ADME; conditions: 2 μM
Description: Duplicate aliquots of plasma were warmed to 37° C. and the metabolic reactions initiated by the addition of test compound (6 μL of 0.1 mM DMSO stock) or plasma stability standard (GS-7340) to obtain a final substrate concentration of 2 μM. At 0.05, 0.5, 1, 2, 3 and 4 hr, 25 μL aliquots of the reaction mixture were transferred to plates containing 225 μl of IS/Q quenching solution. After quenching, the plates were centrifuged at 3000×g for 30 minutes, and 150 μL supernatant was diluted with 150 μL water. Aliquots (10 μL) of the diluted supernatant were analyzed on a Thermo Q-Exactive mass spectrometer as described below. Quantification of test compounds and controls was performed by analyte/internal standard peak area ratio (PAR) values measured on a Thermo Q-Exactive mass spectrometer coupled to a Dionex UltiMate 3000 HPLC with a Leap Technologies HTC PAL autosampler. The column used was a Thermo Hypersil GOLD (1.9 μm particle size, 2.1×50 mm). Mobile phase A consisted of […] formic acid in water. Mobile phase B consisted of 0.1% (v/v) formic acid in acetonitrile. Elution of analytes was achieved by a series of linear gradients of acetonitrile in water containing 0.1% (v/v) formic acid. The mass spectrometer was calibrated on a weekly basis and mass tolerance of 5 ppm was used.

[3] = system: SARS Coronavirus 2 recombinant with NanoLuc (SARS-CoV2-NLuc); experiment: organism not typed; format: cell-based; conditions: 48 h
[4] = system: Respiratory syncytial virus recombinant with luciferase (RSV-Luc5); experiment: microbe, parasite or virus in culture; format: cell-based; conditions: human respiratory syncytial virus, NHBE, 72 h, read-out: RSV NHBE EC50 (nM)
in vitro [5] = format: cell-based; conditions: human
Description: Cytotoxicity of the compounds was determined in uninfected cells using the cell viability reagent in a similar fashion as described before for other cell types (Cihlar et al., Antimicrob Agents Chemother. 2008, 52(2):655-65). HEp-2 (1.5×10^3 cells/well) and MT-4 (2×10^3 cells/well) cells were plated in 384-well plates and incubated with the appropriate medium containing 3-fold serially diluted compound ranging from 15 nM to 100,000 nM. Cells were cultured for 4-5 days at 37° C. Following the incubation, the cells were allowed to equilibrate to 25° C., and cell viability was determined by adding Cell-Titer Glo viability reagent. The mixture was incubated for 10 min, and the luminescence signal was quantified using an Envision plate reader. Untreated cell and cells treated at 2 μM puromycin (Sigma, St. Louis, MO) serve as […] cell viability control, respectively. The percent of cell viability was calculated for each tested compound concentration relative to the 0% and 100% controls and the CC50 value was determined by non-linear regression as a compound concentration reducing the cell viability by […].

[6] = system: Caco-2 cells (clone C2BBel); experiment: CACO-2 permeability; format: in vitro ADME; conditions: donor pH 6.5, receiver pH 7.4; for DM Caco2 A to B: forward (A to B); for DM Caco2 B to A: reverse (B to A)
Description: Pre-plated Caco-2 cells (clone C2BBel) were obtained from Sigma-Aldrich, Inc. (Atlanta, GA). Cell monolayers were grown to confluence on collagen-coated, microporous, polycarbonate membranes in 24-well transwell plates for 21 days. The permeability assay buffer in donor wells was Hanks' balanced salt solution (HBSS) containing 10 mM HEPES and 15 mM glucose at a pH of 6.5 containing 200 μM BNPP. The receiver wells used HBSS buffer containing 10 mM HEPES and 15 mM glucose at a pH of 7.4 and supplemented with 1% BSA. After an initial equilibration with transport buffer, TEER values were read to test membrane integrity. The experiment was started by the addition of buffers containing test compounds, 200 μl and 1000 μl in the apical and basolateral chamber, respectively. At 0- and 2-hour post dose, 10 μL was sampled from donor compartment and was immediately diluted in 190 μL of 20% methanol. At 1 and 2 hours post dose, 100 μl of solution was taken from the receiver compartments and was immediately diluted in 100 μl of 20% methanol. Removed buffer was replaced with fresh buffer and a correction was applied to all calculations for the removed material. Each compound was tested in 2 separate replicate wells for each condition. All samples were then extracted with 400 μl 100% acetonitrile with internal standard to precipitate protein. Cells were dosed on the apical or basolateral side to determine forward (A to B) and reverse (B to A) permeability. To test for non-specific binding and compound instability, the total amount of drug was quantitated at the end of the experiment and compared to the material present in the original dosing solution as a percent recovery. Formation of the parent compound (GS-441524; Reference Compound A) was monitored in assay wells dosed with the prodrug. Samples were analyzed by LC-MS/MS.

in vitro [7] = format: in vitro ADME; conditions: human, s9, pH 7.4; remark: listed apart in the source
Description: Duplicate aliquots of test compound or positive control substrate (GS-7340) were added to S9 stock diluted with 100 mM potassium phosphate buffer, pH 7.4, to obtain a protein concentration of 2.4 mg/mL. The S9 metabolic reactions were initiated by the addition of the substrates to the S9 reaction mixture to a final concentration of 2 μM. At 2, 12, 25, 45, 65 and 90 min, 25 μL aliquots of the reaction mixture were transferred to plates containing 225 μl of IS/Q solution. After quenching, the plates were centrifuged at 3000×g for 30 minutes, and 150 μL aliquots of each supernatant were diluted with 150 μL water. Aliquots (10 μL) of the diluted supernatant were analyzed on a Thermo Q-Exactive mass spectrometer as described below. Quantification of test compounds and controls was performed by analyte/internal standard peak area ratio (PAR) values measured on a Thermo Q-Exactive mass spectrometer coupled to a Dionex UltiMate 3000 HPLC with a Leap Technologies HTC PAL autosampler. The column used was a Thermo Hypersil GOLD (1.9 μm particle size, 2.1×50 mm). Mobile phase A consisted of […] formic acid in water. Mobile phase B consisted of 0.1% (v/v) formic acid in acetonitrile. Elution of analytes was achieved by a series of linear gradients of acetonitrile in water containing 0.1% (v/v) formic acid. The mass spectrometer was calibrated on a weekly basis and mass tolerance of 5 ppm was used.
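Throughout, for CC50: uninfected MT-4 cells over 4-5 days by CellTiter-Glo.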

Compound | half-life at 2 μM (in vitro [1]) [min] | STA Human Plasma 37 [2] | EC50 [3] [µM] | EC50 [4] [nM] | CC50 (in vitro [5]) [µM] | DM Caco2 A to B [6] | DM Caco2 B to A [6] | half-life at 2 μM (in vitro [7]) [min]
N#C[C@@]1(c2ccc3c(N)ncnn23)O[C@H](COC(=O)N2C(=O)OC[C@@H]2Cc2ccccc2)[C@@H](O)[C@H]1O [Compound 4, [(2R,3S,4R,5R)-5-(4-aminopyrrolo[2,1-f][1,2,4]triazin-7-yl)-5-cyano-3,4-dihydroxy-tetrahydrofuran-2-yl]methyl (4S)-4-benzyl-2-oxo-oxazolidine-3-carboxylate] | ≥ 789 | 253.23 | > 50 | > 50000 | > 50 | 0.12 | 0.94 | –
CC(C)[C@H](NC(=O)OC[C@H]1O[C@@](C#N)(c2ccc3c(N)ncnn23)[C@H](O)[C@@H]1O)C(=O)O [Compound 6, ((((2R,3S,4R,5R)-5-(4-aminopyrrolo[2,1-f][1,2,4]triazin-7-yl)-5-cyano-3,4-dihydroxytetrahydrofuran-2-yl)methoxy)carbonyl)-L-valine] | ≥ 792 | 1584 | > 50 | > 50000 | > 50 | 0.05 | 0.07 | –
N#C[C@@]1(c2ccc3c(N)ncnn23)O[C@H](COC(=O)N2CCS(=O)(=O)CC2)[C@@H](O)[C@H]1O [Compound 11, [(2R,3S,4R,5R)-5-(4-aminopyrrolo[2,1-f][1,2,4]triazin-7-yl)-5-cyano-3,4-dihydroxy-tetrahydrofuran-2-yl]methyl 1,1-dioxo-1,4-thiazinane-4-carboxylate] | 779 | 1584 | > 50 | > 50000 | > 50 | 0.08 | 0.11 | –
N#C[C@@]1(c2ccc3c(N)ncnn23)O[C@H](COC(=O)N2CCCO2)[C@@H](O)[C@H]1O [Compound 12, [(2R,3S,4R,5R)-5-(4-aminopyrrolo[2,1-f][1,2,4]triazin-7-yl)-5-cyano-3,4-dihydroxy-tetrahydrofuran-2-yl]methyl isoxazolidine-2-carboxylate] | 85 | 938.47 | > 50 | 35300 | > 50 | 0.08 | 0.36 | –
CCCSC(=O)OC[C@H]1O[C@@](C#N)(c2ccc3c(N)ncnn23)[C@H](O)[C@@H]1O [Compound 14, [(2R,3S,4R,5R)-5-(4-aminopyrrolo[2,1-f][1,2,4]triazin-7-yl)-5-cyano-3,4-dihydroxy-tetrahydrofuran-2-yl]methyl propylsulfanylformate] | 5.12 | 495.99 | 11.7 | 2620 | > 50 | 2.06 | 9.1 | –
CCSC(=O)OC[C@H]1O[C@@](C#N)(c2ccc3c(N)ncnn23)[C@H](O)[C@@H]1O [Compound 15, [(2R,3S,4R,5R)-5-(4-aminopyrrolo[2,1-f][1,2,4]triazin-7-yl)-5-cyano-3,4-dihydroxy-tetrahydrofuran-2-yl]methyl ethylsulfanylformate] | 16.4 | 451.78 | 19.7 | 5650 | > 50 | 1.51 | 7.08 | –
N#C[C@@]1(c2ccc3c(N)ncnn23)O[C@H](COC(=O)SC2CCCC2)[C@@H](O)[C@H]1O [Compound 16, [(2R,3S,4R,5R)-5-(4-aminopyrrolo[2,1-f][1,2,4]triazin-7-yl)-5-cyano-3,4-dihydroxy-tetrahydrofuran-2-yl]methyl cyclopentylsulfanylformate] | 3.4 | – | 8.75 | 2810 | 49.9 | – | – | 6.2
CC(C)(C)SC(=O)OC[C@H]1O[C@@](C#N)(c2ccc3c(N)ncnn23)[C@H](O)[C@@H]1O [Compound 17, [(2R,3S,4R,5R)-5-(4-aminopyrrolo[2,1-f][1,2,4]triazin-7-yl)-5-cyano-3,4-dihydroxy-tetrahydrofuran-2-yl]methyl tert-butylsulfanylformate] | 44.5 | 1343.5 | ≥ 50 | 8110 | 49.8 | 3.05 | 15.63 | –
CC(=O)O[C@H]1[C@@H](OC(C)=O)[C@](C#N)(c2ccc3c(N)ncnn23)O[C@@H]1COC(=O)NC(C)C [Compound 18, [(2R,3R,4R,5R)-4-acetoxy-5-(4-aminopyrrolo[2,1-f][1,2,4]triazin-7-yl)-5-cyano-2-(isopropylcarbamoyloxymethyl)tetrahydrofuran-3-yl]acetate] | 0.581 | 16.014 | > 50 | > 50000 | > 50 | 0.8 | 6.91 | –
